Measurements as given in patent US20240165226A1, “COMBINATION TREATMENT OF CD38-EXPRESSING TUMORS” (GENMAB A/S, priority 2006, published 2024).
“Also recorded” adds a separate entry of the source.

B1: -024: human monoclonal IgG1 anti-CD38 antibody, VL region SEQ ID No:22 and VH region SEQ ID No:27 (antibody, listed as Homo sapiens, V domains shown)
VH: EVQLVQSGAEVKKPGESLKISCKGSGYSFSNYWIGWVRQMPGKGLEWMGIIYPHDSDARYSPSFQGQVTFSADKSISTAYLQWSSLKASDTAMYYCARHVGWGSRYWYFDLWGRGTLVTVSS
VL: EIVLTQSPATLSLSPGERATLSCRASQSVSSYLAWYQQKPGQAPGLLIYDASNRASGIPARFSGSGSGTDFTLTISSLEPEDFAVYYCQQRSNWPLTFGGGTKVEIK

Tests used:
Daudi-luc cells = experiment: ADCC (51Cr release) of Daudi-luc cells; assay type: cell-based; conditions: for lysis of Daudi cells by ADCC: in words
Experimental: (§1) Daudi-luc cells, fresh multiple myeloma tumor cells, fresh Plasma Cell Leukemia tumor cells and JK6L and AMO-1 multiple myeloma cells were collected (5×10^6 cells) in RPMI^++ (RPMI 1640 culture medium supplemented with 10% cosmic calf serum (HyClone, Logan, UT, USA)), to which 100 μCi ^51Cr (Chromium-51; Amersham Biosciences Europe GmbH, Roosendaal, The Netherlands) was added, and the mixture was incubated in a 37° C. water bath for 1 hr. After washing of the cells (twice in PBS, 1500 rpm, 5 min), the cells were resuspended in RPMI^++ and counted by trypan blue exclusion. Cells were brought at concentration of 1×10^5 cells/ml.
(§2) Fresh peripheral blood mononuclear cells (healthy volunteers, UMC Utrecht, Utrecht, The Netherlands) were isolated from 40 ml of heparin blood by Ficoll (Bio Whittaker; lymphocyte separation medium, cat 17-829E) according to the manufacturer's instructions. After resuspension of cells in RPMI^++, cells were counted by trypan blue exclusion and brought at concentration of 1×10^7 cells/ml.
50 μl of ^51Cr-labeled targets cells were pipetted into 96-well plates, and 50 μl of antibody was added, diluted in RPMI^++ (final concentrations 10, 1, 0.1, 0.01 μg/ml). Cells were incubated (RT, 15 min), and 50 μl effector cells were added, resulting in an effector to target ratio of 100:1 (for determination of maximal lysis, 100 μl 5% Triton-X100 was added instead of effector cells; for determination of spontaneous lysis, 50 μl target cells and 100 μl RPMI++ were used). Cells were spun down (500 rpm, 5 min), and incubated (37° C., 5% CO2, 4 hr). After spinning down cells (1500 rpm, 5 min), 100 μl of supernatant was harvested into micronic tubes, and counted in gamma counter. The percentage specific lysis was calculated as follows:
(cpm sample−cpm target cells only)/(cpm maximal lysis−cpm target cells only)
wherein cpm is counts per minute.

[1] = test system: fresh plasma cell leukemia tumor cells; experiment: ADCC set up II, plasma cell leukemia tumor cells; assay type: cell-based, human; conditions: in words
Experimental: Human blood from human volunteers (university Erlangen, Erlangen, Germany) was diluted twice in RPMI 1640 and blood cells were layered on Ficoll (Lymphocyte Separation Medium […], 710 g, RT, 20 min; BioWhittaker, Cambrex Bio Science Verviers, Verviers, Belgium, cat. 17-829E, lot no. 0148 32). Peripheral blood mononuclear cells (MNCs) were collected from the interphase, washed and resuspended in RPMI 1640 culture medium supplemented with 10% FCS, 2 mM L-glutamine, 5 U/ml penicillin, 50 μg/ml streptomycin (all derived from BioWhittaker) to which 25 mM HEPES (BioWhittaker) was added.
Target B-cells (fresh plasma cell leukemia tumor cells, JK6L and AMO-1 B-cell lines, obtained from Dr. T. Valerius, University of Erlangen, Erlangen, Germany) were labeled with 20 μCi ^51Cr (Amersham Biosciences, Uppsala, Sweden) for 2 hours. After extensive washing in RPMI-10, cells were adjusted to 1×10^5 cells/ml. […] After incubation (3 hr, 37° C.), assays were stopped by centrifugation, and 51Cr release from triplicates was measured in counts per minute (cpm) in a scintillation counter. Percentage of cellular cytotoxicity was calculated using the following formula: […]
with maximal ^51Cr release determined by adding perchloric acid (3% final concentration) to target cells, and basal release was measured in the absence of sensitizing antibodies and effector cells.

[2] = test system: fresh multiple myeloma tumor cells; experiment: ADCC (51Cr release) of fresh multiple myeloma tumor cells; assay type: cell-based, human; conditions: in words
Experimental: as §1, §2
50 μl of ^51Cr-labeled targets cells were pipetted into 96-well plates, and 50 μl of antibody was added, diluted in RPMI^++ (final concentrations 10, 1, 0.1, 0.01 μg/ml). […] After spinning down cells (1500 rpm, 5 min), 100 μl of supernatant was harvested into micronic tubes, and counted in gamma counter. The percentage specific lysis was calculated as follows: […]

[3] = molecular target: T1, CD38-transfected CHO (CHO-CD38) cells (Homo sapiens, UniProt P28907); experiment: Binding to CD38-transfected CHO cells by flow cytometry; conditions: for binding to CHO-CD38 cells: in words
T1 construct: expressed in transfected cells; host or cells: CHO cells
Experimental: After harvesting and counting, Daudi-luc cells, CHO cells transfected with CD38 and control CHO cells were resuspended in PBS (1×10^6 cells/ml). Then, cells were put in 96-well V-bottom plates (100 μl/well) and washed twice in PBS-BSA (PBS supplemented with 0.1% BSA and 0.02% Na-azide). Thereafter, 50 μl antibody solution in PBS-BSA was added to the cells (4° C., 30 min). After washing three times in PBS-BSA, 50 μl (1:400 dilution) of rabbit anti-human IgG-FITC in PBS-BSA was added (4° C. in the dark, 30 min). Cells were washed three times and specific binding of CD38-antibodies to CHO-CD38 and Daudi-luc cells was detected by flow cytometry. HuMab-KLH (a human monoclonal antibody against KLH (keyhole limpet haemocyanin) generated by Genmab B.V., Utrecht, The Netherlands by use of the immunization protocols described elsewhere herein) was used as a control. […] No binding to control CHO cells is observed (data not shown).

Molecule | Maximal lysis (%) (Daudi-luc cells; ADCC, Daudi target cells, n=5) | EC50 Daudi-luc (Daudi-luc cells; ADCC, Table 2 first column, effector to target ratio 100:1) [µg/mL] | ADCC performance compared to rituximab (Daudi-luc cells; Daudi-luc cells) | lysis of Daudi cells by ADCC (Daudi-luc cells) | ADCC of plasma cell leukemia primary tumor cells [1] | ADCC of fresh multiple myeloma tumor cells [2] | EC50 CHO-CD38 ([3]; binding, flow cytometry) [µg/mL] | binding to CHO-CD38 cells [3]
-005: human monoclonal IgG1 anti-CD38 antibody, VL region SEQ ID No:12 and VH region SEQ ID No:17 | 49.2 | 0.0045 | slightly better than rituximab | induce lysis by ADCC; also recorded: mediate lysis | induce ADCC | ADCC is induced | 0.23 | bind
B1 | – | – | – | induce lysis by ADCC | induce ADCC | ADCC is induced | – | bind
